# Reference: PubChem BioAssay AID2060904 (Molecular Pharmacology Branch, DTP, NCI, 2025)
# System: 349418-098-R-PDC complex spheroid viability
# Test: Anticancer human tumor 349418-098-R-PDC patient-derived lung adenocarcinoma cell line growth inhibition [RAS]
# Settings: for IC50: curve of first compound; for viability, T/C: stronger effect = lower value
# Description: RAS pathway inhibitors in Combinations in Complex Spheroids
# A high-throughput screen of multi-cell type tumor spheroids was designed to identify active combinations of RAS pathway inhibitors and targeted small molecules. Complex spheroids include a stromal component modeled by human endothelial cells (HUVEC) and fibroblasts modeled by human mesenchymal stem cells (MSCs). The concentration ranges selected for each drug and investigational agent were based upon clinically achievable concentrations if the clinical Cmax of the agent was known.
# Compounds. The drugs and investigational agents: abemaciclib (NSC768073), cobimetinib (NSC768068), divarasib (GDC6063, NSC841802), docetaxel (NSC628503), GDC-1971 (RLY-1971, NSC841576), gemcitabine (NSC613327), inavolisib (NSC800729), ipatasertib (NSC767898), KB-0742 (NSC834161), MRTX-1133 (NSC836407), osimertinib (NSC779217), RMC-4630 (NSC839698), RMC-6236 (NSC851965), RMC-6291 (NSC852671), Ro-3306 (NSC812927), sapanisertib (NSC764658), SN-38 (NSC673596), staurosporine (NSC755774), SY5609 (NSC837396), and tovorafenib (DAY101, NSC766906), were obtained from the National Cancer Institute (NCI) Developmental Therapeutics Program Chemical Repository. The FDA-approved anticancer drug set is available from the NCI Developmental Therapeutics Program. […] The stock solutions were prepared in dimethyl sulfoxide (DMSO, Sigma-Aldrich, St. Louis, MO, cat. D2650) at 800-fold the tested concentration and stored at -70 degrees C prior to their use. All drugs and investigational agents were tested over a range starting from a high concentration at or near the clinical Cmax and decreasing in half-log increments. If the clinical Cmax for an agent had not been determined, the highest concentration tested was 10 microM.
# Cell Culture. All cells were maintained in an incubator at 37 degrees C and 5% CO2 with 95% humidity. The PDC lines were cultured according to standard operating procedures established by the NCI PDMR. All PDCs were thawed and cultured in Matrigel-coated flasks prepared with a working solution of 1X Ham's F-12 nutrient mix, without supplementation (Invitrogen, Waltham, MA, cat. 11765054), 100 U/mL penicillin-streptomycin (Invitrogen, cat. 15140122), and 2.5% Matrigel (Corning Inc., Corning, NY, cat. 354248) for the first three passages. The 362531-283-R-J2-PDC and 782815-120-R-J1-PDC lines were cultured in 6C/Colon 1B media, which includes advanced DMEM/F-12 (Thermo Fisher Scientific, cat. 12634028), 10 mM HEPES (Thermo Fisher Scientific, cat. 15630080), 1X GlutaMAX supplement (Thermo Fisher Scientific, cat. 35050061), 0.1 mg/mL primocin (InvivoGen, San Diego, CA, cat. ant-pm-2), 10% defined fetal bovine serum, heat inactivated (HyClone Laboratories Inc., Logan, UT, cat. SH30070.03HI), 50% L-WRN conditioned media (ATCC, cat. CRL-3276), 1.25 mM N-Acetyl-L-cysteine (Sigma-Aldrich, cat. A9165), 10 mM nicotinamide (Sigma-Aldrich, cat. N0636), 1X B-27 supplement (Thermo Fisher Scientific, cat. 17504044), 1X N-2 supplement (Thermo Fisher Scientific, cat. 17502048), 50 ng/mL human EGF (Thermo Fisher Scientific, cat. PHG0311), and 10 microM Y-27632 dihydrochloride (Tocris Bioscience, cat. 1254). The K12877-001-R-J1-PDC line was cultured in 6I media, which includes all 6C/Colon 1B media plus 10 ng/mL human FGF-10 (PeproTech, cat. 100-26), 1 ng/mL human FGF-2 (PeproTech, cat. 100-18B), 1 µM prostaglandin E2 (Tocris Bioscience, cat. 2296), […] hydrocortisone (Sigma-Aldrich, cat. H4001), and […] bovine insulin (Sigma-Aldrich, cat. I6634). The K86415-001-R-J1-PDC line was cultured in 6D media, which includes all 6C/Colon 1B media components minus the L-WRN conditioned media. The 485176-168-R4-J1-PDC was cultured in PANC media, which includes all 6C/Colon 1B media plus 100 ng/mL human FGF-10 (PeproTech, cat. 100-26), 500 nM SB-431542 (Selleckchem, cat. S1067), and 10 nM gastrin (Tocris Bioscience, cat. 3006). […]
# 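Also: spheroids exposed to compound for seven days before viability readout.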
compound,measurement,setting,value
CC1(C)CCC(Nc2ncc(C(F)(F)F)c(-c3c[nH]c4c(P(C)(C)=O)c(C#N)ccc34)n2)CN1 (configuration not stated) + C=CC(=O)N1CCN(c2nc(OCC3CCCN3C)nc3c(F)c(-c4nc(N)cc(C)c4C(F)(F)F)c(Cl)cc23)C(C)C1,IC50,second compound 0.00316 µM,1.25 nM
same,IC50,second compound 0.01 µM,1.19 nM
same,IC50,second compound 0.0316 µM,< 0.949 nM
same,IC50,second compound 0.1 µM,1.07 nM
same,IC50,second compound 0.316 µM,1.16 nM
same,IC50,second compound 1 µM,1.27 nM
same,"viability, T/C","second compound 0.00316 µM, first compound 0.000949 µM",57.1%
same,"viability, T/C","second compound 0.00316 µM, first compound 0.003 µM",27.2%
same,"viability, T/C","second compound 0.00316 µM, first compound 0.00949 µM",15.7%
same,"viability, T/C","second compound 0.00316 µM, first compound 0.03 µM",9.16%
same,"viability, T/C","second compound 0.00316 µM, first compound 0.0949 µM",9.76%
same,"viability, T/C","second compound 0.00316 µM, first compound 0.3 µM",8.19%
same,"viability, T/C","second compound 0.01 µM, first compound 0.000949 µM",56.4%
same,"viability, T/C","second compound 0.01 µM, first compound 0.003 µM",24.6%
same,"viability, T/C","second compound 0.01 µM, first compound 0.00949 µM",16.1%
same,"viability, T/C","second compound 0.01 µM, first compound 0.03 µM",9.39%
same,"viability, T/C","second compound 0.01 µM, first compound 0.0949 µM",12.1%
same,"viability, T/C","second compound 0.01 µM, first compound 0.3 µM",7.38%
same,"viability, T/C","second compound 0.0316 µM, first compound 0.000949 µM",44%
same,"viability, T/C","second compound 0.0316 µM, first compound 0.003 µM",23.3%
same,"viability, T/C","second compound 0.0316 µM, first compound 0.00949 µM",18.3%
same,"viability, T/C","second compound 0.0316 µM, first compound 0.03 µM",11.6%
same,"viability, T/C","second compound 0.0316 µM, first compound 0.0949 µM",11.7%
same,"viability, T/C","second compound 0.0316 µM, first compound 0.3 µM",8.91%
same,"viability, T/C","second compound 0.1 µM, first compound 0.000949 µM",53.1%
same,"viability, T/C","second compound 0.1 µM, first compound 0.003 µM",25.3%
same,"viability, T/C","second compound 0.1 µM, first compound 0.00949 µM",12.4%
same,"viability, T/C","second compound 0.1 µM, first compound 0.03 µM",14.6%
same,"viability, T/C","second compound 0.1 µM, first compound 0.0949 µM",13.2%
same,"viability, T/C","second compound 0.1 µM, first compound 0.3 µM",8.82%
same,"viability, T/C","second compound 0.316 µM, first compound 0.000949 µM",54.9%
same,"viability, T/C","second compound 0.316 µM, first compound 0.003 µM",29.1%
same,"viability, T/C","second compound 0.316 µM, first compound 0.00949 µM",14.6%
same,"viability, T/C","second compound 0.316 µM, first compound 0.03 µM",12.8%
same,"viability, T/C","second compound 0.316 µM, first compound 0.0949 µM",13.3%
same,"viability, T/C","second compound 0.316 µM, first compound 0.3 µM",9.31%
same,"viability, T/C","second compound 1 µM, first compound 0.000949 µM",58.9%
same,"viability, T/C","second compound 1 µM, first compound 0.003 µM",24.2%
same,"viability, T/C","second compound 1 µM, first compound 0.00949 µM",15.7%
same,"viability, T/C","second compound 1 µM, first compound 0.03 µM",14.2%
same,"viability, T/C","second compound 1 µM, first compound 0.0949 µM",10.3%
same,"viability, T/C","second compound 1 µM, first compound 0.3 µM",7.97%
